Reference: patent US6586453B2, “Substituted thiazoles and the use thereof as inhibitors of plasminogen activator inhibitor-1” (3-Dimensional Pharmaceuticals, Inc., priority 2000, dated 2003)

Target: PAI-1 (Homo sapiens, UniProt P05121)
Test: PAI-1 assay (direct chromogenic assay, inhibitory activity of PAI-1 against uPA)
Type: biochemical
Conditions: substrate N-CBZ-VAL-GLY-ARG p-nitroanilide, 10 minute incubation at 37° C., read-out: PAI-1 inhibitory activity in vitro, IC50
Protocol: The inhibitory activity of PAI-1 against uPA was measured by a direct chromogenic assay using the substrate N-CBZ-VAL-GLY-ARG p-nitroanilide. The tested compound was added to PAI-1 which had been diluted in activity assay buffer (0.05M Hepes, pH 7.5, 0.15M NaCl, containing 0.05% N-octyl-D-glucopyranoside and 250 μg/ml bovine serum albumin). After a 10 minute incubation at 37° C., uPA was added (0.04 units/assay), followed immediately by the addition of substrate. After reequilibration at 37° C., residual uPA activity was quantified by measuring the change in absorbance at 405 nm over 12 minutes. The concentration of active PAI-1 in the assays was the amount required to inhibit 80-85% of uPA as compared to samples containing uPA alone.
Compounds No. 1 to 37 were tested in the PAI-1 assay as described above.

PAI-1, sequence (P05121 24-402): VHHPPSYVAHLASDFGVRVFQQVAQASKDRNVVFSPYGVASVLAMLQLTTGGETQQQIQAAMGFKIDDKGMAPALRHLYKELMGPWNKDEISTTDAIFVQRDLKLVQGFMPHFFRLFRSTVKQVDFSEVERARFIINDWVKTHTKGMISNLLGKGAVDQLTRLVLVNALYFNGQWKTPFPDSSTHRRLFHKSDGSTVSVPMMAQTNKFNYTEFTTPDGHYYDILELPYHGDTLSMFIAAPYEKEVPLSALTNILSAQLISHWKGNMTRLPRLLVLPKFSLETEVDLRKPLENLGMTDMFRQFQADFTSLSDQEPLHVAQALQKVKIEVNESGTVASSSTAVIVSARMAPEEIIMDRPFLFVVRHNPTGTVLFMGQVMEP

Row | Compound | IC50 [nM]
1 | CCc1cc2c(cc1-c1csc(Nc3ccc(C(=O)O)cc3)n1)C(C)(C)CCC2(C)C [Compound 2, 4-{[4-(3-ethyl-5,5,8,8-tetramethyl-2-5,6,7,8-tetrahydronaphthyl)-1,3-thiazol-2-yl]amino}benzoic acid] | 1800
2 | N#Cc1ccc(Nc2nc(-c3ccc(-c4ccccc4)cc3)cs2)cc1 [Compound 11, 4-{[4-(4-phenylphenyl)-1,3-thiazol-2-yl]amino}benzenecarbonitrile] | 1600
3 | CCc1cc2c(cc1-c1csc(Nc3cccc(C(=O)O)c3)n1)C(C)(C)CCC2(C)C [Compound 3] | 1100
